From BigSolDB 2.1

Question: Which solubility (mole fraction) (in acetonitrile, 278.15 K) does the source give for `CC(C)C(=O)OCC(=O)[C@@]12O[C@H](C3CCCCC3)O[C@@H]1C[C@H]1[C@@H]3CCC4=CC(=O)C=C[C@]4(C)[C@H]3[C@@H](O)C[C@@]12C` here?
Answer: 0.00485

Question: What about the solubility (mole fraction) (in acetonitrile, 280.65 K) of the same molecule?
Answer: 0.00528

Question: And the solubility (mole fraction) (in acetonitrile, 283.15 K)?
Answer: 0.00576

Question: And the solubility (mole fraction) (in acetonitrile, 285.65 K)?
Answer: 0.00626

Question: And the solubility (mole fraction) (in acetonitrile, 288.15 K)?
Answer: 0.00687

Question: And the solubility (mole fraction) (in acetonitrile, 290.65 K)?
Answer: 0.00739

Question: What about the solubility (mole fraction) (in acetonitrile, 293.15 K) of the same molecule?
Answer: 0.008

Question: What about the solubility (mole fraction) (in acetonitrile, 295.65 K) of the same molecule?
Answer: 0.00865

Question: What about the solubility (mole fraction) (in acetonitrile, 298.15 K) of the same molecule?
Answer: 0.00937

Question: What about the solubility (mole fraction) (in acetonitrile, 300.65 K) of the same molecule?
Answer: 0.0101

Question: And the solubility (mole fraction) (in acetonitrile, 303.15 K)?
Answer: 0.0109

Question: And the solubility (mole fraction) (in acetonitrile, 305.65 K)?
Answer: 0.0117

Question: And the solubility (mole fraction) (in acetonitrile, 308.15 K)?
Answer: 0.0126

Question: And the solubility (mole fraction) (in acetonitrile, 310.65 K)?
Answer: 0.0135

Question: What about the solubility (mole fraction) (in acetonitrile, 313.15 K) of the same molecule?
Answer: 0.0143

Question: And the solubility (mole fraction) (in ethanol, 278.15 K)?
Answer: 0.00231

Question: What about the solubility (mole fraction) (in ethanol, 280.65 K) of the same molecule?
Answer: 0.00276

Question: What about the solubility (mole fraction) (in ethanol, 283.15 K) of the same molecule?
Answer: 0.00333

Question: And the solubility (mole fraction) (in ethanol, 285.65 K)?
Answer: 0.00398

Question: And the solubility (mole fraction) (in ethanol, 288.15 K)?
Answer: 0.00478

Question: And the solubility (mole fraction) (in ethanol, 290.65 K)?
Answer: 0.00568

Question: What about the solubility (mole fraction) (in ethanol, 293.15 K) of the same molecule?
Answer: 0.00674

Question: What about the solubility (mole fraction) (in ethanol, 295.65 K) of the same molecule?
Answer: 0.00796

Question: And the solubility (mole fraction) (in ethanol, 298.15 K)?
Answer: 0.00937

Question: What about the solubility (mole fraction) (in ethanol, 300.65 K) of the same molecule?
Answer: 0.011

Question: What about the solubility (mole fraction) (in ethanol, 303.15 K) of the same molecule?
Answer: 0.0129

Question: And the solubility (mole fraction) (in ethanol, 305.65 K)?
Answer: 0.0151

Question: And the solubility (mole fraction) (in ethanol, 308.15 K)?
Answer: 0.0176

Question: What about the solubility (mole fraction) (in ethanol, 310.65 K) of the same molecule?
Answer: 0.0204

Question: And the solubility (mole fraction) (in ethanol, 313.15 K)?
Answer: 0.0237

Question: And the solubility (mole fraction) (in ethyl acetate, 278.15 K)?
Answer: 0.0515

Question: What about the solubility (mole fraction) (in ethyl acetate, 280.65 K) of the same molecule?
Answer: 0.0559

Question: What about the solubility (mole fraction) (in ethyl acetate, 283.15 K) of the same molecule?
Answer: 0.0604

Question: And the solubility (mole fraction) (in ethyl acetate, 285.65 K)?
Answer: 0.0653

Question: What about the solubility (mole fraction) (in ethyl acetate, 288.15 K) of the same molecule?
Answer: 0.0704

Question: What about the solubility (mole fraction) (in ethyl acetate, 290.65 K) of the same molecule?
Answer: 0.076

Question: What about the solubility (mole fraction) (in ethyl acetate, 293.15 K) of the same molecule?
Answer: 0.0818

Question: And the solubility (mole fraction) (in ethyl acetate, 295.65 K)?
Answer: 0.088

Question: And the solubility (mole fraction) (in ethyl acetate, 298.15 K)?
Answer: 0.0945

Question: What about the solubility (mole fraction) (in ethyl acetate, 300.65 K) of the same molecule?
Answer: 0.101

Question: What about the solubility (mole fraction) (in ethyl acetate, 303.15 K) of the same molecule?
Answer: 0.109

Question: What about the solubility (mole fraction) (in ethyl acetate, 305.65 K) of the same molecule?
Answer: 0.116

Question: And the solubility (mole fraction) (in ethyl acetate, 308.15 K)?
Answer: 0.124

Question: What about the solubility (mole fraction) (in ethyl acetate, 310.65 K) of the same molecule?
Answer: 0.133

Question: What about the solubility (mole fraction) (in ethyl acetate, 313.15 K) of the same molecule?
Answer: 0.141

Question: What about the solubility (mole fraction) (in isopropanol, 278.15 K) of the same molecule?
Answer: 0.00814

Question: And the solubility (mole fraction) (in isopropanol, 280.65 K)?
Answer: 0.00948

Question: And the solubility (mole fraction) (in isopropanol, 283.15 K)?
Answer: 0.0111

Question: And the solubility (mole fraction) (in isopropanol, 285.65 K)?
Answer: 0.013

Question: What about the solubility (mole fraction) (in isopropanol, 288.15 K) of the same molecule?
Answer: 0.0151

Question: And the solubility (mole fraction) (in isopropanol, 290.65 K)?
Answer: 0.0175

Question: What about the solubility (mole fraction) (in isopropanol, 293.15 K) of the same molecule?
Answer: 0.0203

Question: And the solubility (mole fraction) (in isopropanol, 295.65 K)?
Answer: 0.0234

Question: What about the solubility (mole fraction) (in isopropanol, 298.15 K) of the same molecule?
Answer: 0.0271

Question: And the solubility (mole fraction) (in isopropanol, 300.65 K)?
Answer: 0.0312

Question: And the solubility (mole fraction) (in isopropanol, 303.15 K)?
Answer: 0.0359

Question: And the solubility (mole fraction) (in isopropanol, 305.65 K)?
Answer: 0.0411

Question: What about the solubility (mole fraction) (in isopropanol, 308.15 K) of the same molecule?
Answer: 0.047

Question: What about the solubility (mole fraction) (in isopropanol, 310.65 K) of the same molecule?
Answer: 0.0536

Question: And the solubility (mole fraction) (in isopropanol, 313.15 K)?
Answer: 0.061

Question: And the solubility (mole fraction) (in n-butanol, 278.15 K)?
Answer: 0.0669

Question: What about the solubility (mole fraction) (in n-butanol, 280.65 K) of the same molecule?
Answer: 0.0689

Question: What about the solubility (mole fraction) (in n-butanol, 283.15 K) of the same molecule?
Answer: 0.0716

Question: And the solubility (mole fraction) (in n-butanol, 285.65 K)?
Answer: 0.0743

Question: And the solubility (mole fraction) (in n-butanol, 288.15 K)?
Answer: 0.0779

Question: What about the solubility (mole fraction) (in n-butanol, 290.65 K) of the same molecule?
Answer: 0.0815

Question: What about the solubility (mole fraction) (in n-butanol, 293.15 K) of the same molecule?
Answer: 0.0852

Question: What about the solubility (mole fraction) (in n-butanol, 295.65 K) of the same molecule?
Answer: 0.0898

Question: What about the solubility (mole fraction) (in n-butanol, 298.15 K) of the same molecule?
Answer: 0.0942

Question: And the solubility (mole fraction) (in n-butanol, 300.65 K)?
Answer: 0.0993

Question: What about the solubility (mole fraction) (in n-butanol, 303.15 K) of the same molecule?
Answer: 0.105

Question: And the solubility (mole fraction) (in n-butanol, 305.65 K)?
Answer: 0.111

Question: And the solubility (mole fraction) (in n-butanol, 308.15 K)?
Answer: 0.118

Question: What about the solubility (mole fraction) (in n-butanol, 310.65 K) of the same molecule?
Answer: 0.124

Question: And the solubility (mole fraction) (in n-butanol, 313.15 K)?
Answer: 0.131

Question: And the solubility (mole fraction) (in n-propanol, 278.15 K)?
Answer: 0.0141

Question: And the solubility (mole fraction) (in n-propanol, 280.65 K)?
Answer: 0.0164

Question: What about the solubility (mole fraction) (in n-propanol, 283.15 K) of the same molecule?
Answer: 0.0191

Question: What about the solubility (mole fraction) (in n-propanol, 285.65 K) of the same molecule?
Answer: 0.0222

Question: What about the solubility (mole fraction) (in n-propanol, 288.15 K) of the same molecule?
Answer: 0.025

Question: What about the solubility (mole fraction) (in n-propanol, 290.65 K) of the same molecule?
Answer: 0.029

Question: What about the solubility (mole fraction) (in n-propanol, 293.15 K) of the same molecule?
Answer: 0.0334

Question: And the solubility (mole fraction) (in n-propanol, 295.65 K)?
Answer: 0.0385

Question: What about the solubility (mole fraction) (in n-propanol, 298.15 K) of the same molecule?
Answer: 0.0437

Question: What about the solubility (mole fraction) (in n-propanol, 300.65 K) of the same molecule?
Answer: 0.05

Question: And the solubility (mole fraction) (in n-propanol, 303.15 K)?
Answer: 0.0567

Question: What about the solubility (mole fraction) (in n-propanol, 305.65 K) of the same molecule?
Answer: 0.0644

Question: And the solubility (mole fraction) (in n-propanol, 308.15 K)?
Answer: 0.0728

Question: And the solubility (mole fraction) (in n-propanol, 310.65 K)?
Answer: 0.0825

Question: And the solubility (mole fraction) (in n-propanol, 313.15 K)?
Answer: 0.0925

Question: What about the solubility (mole fraction) (in toluene, 278.15 K) of the same molecule?
Answer: 0.0297

Question: And the solubility (mole fraction) (in toluene, 280.65 K)?
Answer: 0.0318

Question: What about the solubility (mole fraction) (in toluene, 283.15 K) of the same molecule?
Answer: 0.0342

Question: What about the solubility (mole fraction) (in toluene, 285.65 K) of the same molecule?
Answer: 0.0367

Question: What about the solubility (mole fraction) (in toluene, 288.15 K) of the same molecule?
Answer: 0.0392

Question: And the solubility (mole fraction) (in toluene, 290.65 K)?
Answer: 0.0421

Question: And the solubility (mole fraction) (in toluene, 293.15 K)?
Answer: 0.0449

Question: What about the solubility (mole fraction) (in toluene, 295.65 K) of the same molecule?
Answer: 0.0479

Question: What about the solubility (mole fraction) (in toluene, 298.15 K) of the same molecule?
Answer: 0.0511

Question: What about the solubility (mole fraction) (in toluene, 300.65 K) of the same molecule?
Answer: 0.0544

Question: And the solubility (mole fraction) (in toluene, 303.15 K)?
Answer: 0.0579

Question: And the solubility (mole fraction) (in toluene, 305.65 K)?
Answer: 0.0616

Question: And the solubility (mole fraction) (in toluene, 308.15 K)?
Answer: 0.0654

Question: What about the solubility (mole fraction) (in toluene, 310.65 K) of the same molecule?
Answer: 0.0694

Question: And the solubility (mole fraction) (in toluene, 313.15 K)?
Answer: 0.0735
